Molecules are shown by their SMILES.

The test system of the experiment is d(C3TA2)3C3/d(T2AG3)4 duplex (DNA, duplex) CCCTAACCCTAACCCTAACCC/TTAGGGTTAGGGTTAGGGTTAGGG
Kind of experiment: fluorescence titration, IT/IN, modified Benesi-Hildebrand. To be noted: citrate 10 mM; 10 mM citrate pH 7.0, <1% ethanol, 25 °C.
In the case of `O=c1c(O)c(-c2ccc(O)c(O)c2)oc2cc(O)ccc12`, the Ka stood at 46200 M⁻¹. In the case of `O=c1c(O)c(-c2ccccc2)oc2ccccc12`, the Ka was 86700 M⁻¹. As for `O=c1c(O)c(-c2ccc(O)c(O)c2)oc2cc(O)cc(O)c12`, the figure is 10400 M⁻¹.
